{"source": "patent US20240245783A1", "about": "“METALLO-BETA-LACTAMASE INHIBITOR” (priority 2021, published 2024)", "key": {"[1]": {"tested_on": "multidrug-resistant Pseudomonas aeruginosa", "experiment": "Growth suppression of multidrug-resistant Pseudomonas aeruginosa clinical isolates (Test Example 7)", "format": "cell-based", "details": "MEPM 2 μg/ml alone, compound 8 20 μM (15.5 μg/ml) alone, Combination = both, 3 wells", "protocol": "The effect of NODA-GA-conjugated doripenem (compound 8) on the susceptibility of a Pseudomonas aeruginosa clinical isolate to a carbapenem antibacterial agent was evaluated by the following method. The Pseudomonas aeruginosa clinical isolate was cultured overnight with shaking in LB medium. The bacterial solution was diluted to 1/1000 with LB medium, used as a test bacterial solution, and then seeded in a 96-well plate. Meropenem (Wako Pure Chemical Industries, Ltd.) was added to this bacterial solution in such a manner that the concentration was 2 μg/ml. The effect of NODA-GA-doripenem alone was also examined. The bacteria were cultured in an incubator at 37° C. for one day, and the growth at that time was measured by turbidity (655 nm).\nMEPM in Table 1 is meropenem (2 μg/ml) administered alone; NODA-GA-doripenem is compound 8 (20 μM; 15.5 μg/ml) administered alone; Combination means a combined use of meropenem (2 μg/ml) and compound 8 (20 μM; 15.5 μg/ml)."}, "[2]": {"tested_on": "IMP-1-expressing Klebsiella pneumoniae", "experiment": "Survival of Leukopenia mice infected with IMP-1-expressing Klebsiella pneumoniae (Test Example 6)", "format": "in vivo", "details": "meropenem 10 mg/kg alone subcutaneously; 48 hours; Leukopenia ddY mice", "protocol": "DTPA-conjugated cefalexin (compound 1)'s effect of enhancing the drug susceptibility of pathogenic bacteria was examined by an in vivo experiment using bacteria-infected mice. To prepare a compromised Leukopenia mouse model, 0.1 mL of cyclophosphamide monohydrate (Sigma-Aldrich) prepared with PBS was administered intraperitoneally to 4-week-old male ddY mice (Japan SLC) at 250 mg/kg at 4 days before infection. IMP-1-expressing Klebsiella pneumoniae used herein was a clinical isolate provided by Kumamoto University Hospital. The bacteria were cultured overnight with shaking in LB medium at 37° C., then diluted 50-fold with LB medium, and further cultured with shaking, so that the turbidity (600 nm) was 1.5 or higher. The bacteria were centrifuged to remove the medium, washed twice with PBS, and then diluted with PBS to 5×10^5 CFU/mL. In the mouse infection experiment, each Leukopenia mouse was infected with 0.1 mL (5×10^4 CFU) of IMP-1-expressing Klebsiella pneumoniae by intraperitoneal injection. Thirty minutes after infection, 0.1 mL of a mixed solution containing meropenem (Wako Pure Chemical Industries, Ltd.) and compound 1 (DTPA-CEF) was subcutaneously administered to each mouse of a treatment mouse group at 10 mg/kg and 50 mg/kg, respectively. […] Forty-eight hours after infection, mice were assessed for viability. […]"}, "[3]": {"target": "T1, recombinant metallo-β-lactamase (recombinant IMP-1) (Serratia marcescens, UniProt P52699)", "T1 construct": "made in house; host or cells: E. coli BL21(DE3), vector pET29a", "T1 sequence (P52699 19-246 limits assumed)": "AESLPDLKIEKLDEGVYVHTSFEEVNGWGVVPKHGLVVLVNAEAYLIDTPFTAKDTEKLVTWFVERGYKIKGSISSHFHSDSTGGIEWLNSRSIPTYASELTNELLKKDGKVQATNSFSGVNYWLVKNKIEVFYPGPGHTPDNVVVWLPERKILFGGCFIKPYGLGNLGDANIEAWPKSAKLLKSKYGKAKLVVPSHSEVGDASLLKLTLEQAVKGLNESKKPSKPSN", "experiment": "Inhibition of meropenem degradation by recombinant IMP-1 (Test Example 1)", "format": "biochemical", "details": "100 μM meropenem, no inhibitor; 1 hour at 37° C.", "protocol": "Based on the description of NON PATENT LITERATURE 5, a recombinant metallo-β-lactamase (recombinant IMP-1) was prepared. “NG_049172” of Database: RefSeq as the IMP-1 gene was incorporated into vector pET29a (Novagen), and then expressed in E. coli BL21(DE3) (Invitrogen).\nRecombinant IMP-1 was dissolved in a 50 mM sodium phosphate buffer (pH 7.6) at a concentration of 0.25 μg/ml. Furthermore, zinc chloride was added to the solution in such a manner that the concentration was 0.1 μM. The resultant in this state was subjected to preincubation at 37° C. for 10 minutes. […] After 1 hour of incubation at 37° C. residual meropenem was quantified by tandem mass spectrometry. Meropenem was quantified by a multiple reaction monitoring method. […]\nReverse phase column: YMC-Triat C18 Plus column (2.1×50 mm); column temperature: 45° C.; mobile phase (2 liquids): mobile phase A (0.1% formic acid aqueous solution), mobile phase B (acetonitrile); gradient: increase from 1% B to 80% B for 10 minutes, keep it at 80% B for 0.5 minutes, and then return it to 1% B over 1 minute. […] Detection: multiple reaction monitoring, parent ion at 384.2, child ion at 68.1; measured in a positive ion mode.\nFIG. 4 depicts a graph showing the results of quantifying the peak area of meropenem detected in FIG. 3. The peak of meropenem alone is expressed as 100%."}}, "data": [{"smiles": "C[C@@H](O)[C@H]1C(=O)N2C(C(=O)O)=C(S[C@@H]3CN[C@H](C(=O)N(C)C)C3)[C@H](C)[C@H]12", "note": "[meropenem, reference compound]", "values": [{"measurement": "suppression of bacterial growth", "setting": "[1]; strain 808#1", "result": "X (x indicates that the number of wells in which suppression of bacterial growth was confirmed was 1 or less)"}, {"measurement": "suppression of bacterial growth", "setting": "[1]; strain 808#2", "result": "X (x indicates that the number of wells in which suppression of bacterial growth was confirmed was 1 or less)"}, {"measurement": "suppression of bacterial growth", "setting": "[1]; strain MR1", "result": "X (x indicates that the number of wells in which suppression of bacterial growth was confirmed was 1 or less)"}, {"measurement": "suppression of bacterial growth", "setting": "[1]; strain MR2", "result": "X (x indicates that the number of wells in which suppression of bacterial growth was confirmed was 1 or less)"}, {"measurement": "suppression of bacterial growth", "setting": "[1]; strain MR3", "result": "X (x indicates that the number of wells in which suppression of bacterial growth was confirmed was 1 or less)"}, {"measurement": "suppression of bacterial growth", "setting": "[1]; strain MR4", "result": "X (x indicates that the number of wells in which suppression of bacterial growth was confirmed was 1 or less)"}, {"measurement": "suppression of bacterial growth", "setting": "[1]; strain MR5", "result": "X (x indicates that the number of wells in which suppression of bacterial growth was confirmed was 1 or less)"}, {"measurement": "suppression of bacterial growth", "setting": "[1]; strain MR6", "result": "X (x indicates that the number of wells in which suppression of bacterial growth was confirmed was 1 or less)"}, {"measurement": "suppression of bacterial growth", "setting": "[1]; strain MR7", "result": "X (x indicates that the number of wells in which suppression of bacterial growth was confirmed was 1 or less)"}, {"measurement": "suppression of bacterial growth", "setting": "[1]; strain MR8", "result": "X (x indicates that the number of wells in which suppression of bacterial growth was confirmed was 1 or less)"}, {"measurement": "suppression of bacterial growth", "setting": "[1]; strain MR9", "result": "X (x indicates that the number of wells in which suppression of bacterial growth was confirmed was 1 or less)"}, {"measurement": "suppression of bacterial growth", "setting": "[1]; strain MR10", "result": "X (x indicates that the number of wells in which suppression of bacterial growth was confirmed was 1 or less)"}, {"measurement": "suppression of bacterial growth", "setting": "[1]; strain MR11", "result": "X (x indicates that the number of wells in which suppression of bacterial growth was confirmed was 1 or less)"}, {"measurement": "suppression of bacterial growth", "setting": "[1]; strain MR12", "result": "X (x indicates that the number of wells in which suppression of bacterial growth was confirmed was 1 or less)"}, {"measurement": "suppression of bacterial growth", "setting": "[1]; strain MR13", "result": "X (x indicates that the number of wells in which suppression of bacterial growth was confirmed was 1 or less)"}, {"measurement": "suppression of bacterial growth", "setting": "[1]; strain MR14", "result": "X (x indicates that the number of wells in which suppression of bacterial growth was confirmed was 1 or less)"}, {"measurement": "suppression of bacterial growth", "setting": "[1]; strain MR15", "result": "X (x indicates that the number of wells in which suppression of bacterial growth was confirmed was 1 or less)"}, {"measurement": "suppression of bacterial growth", "setting": "[1]; strain MR16", "result": "X (x indicates that the number of wells in which suppression of bacterial growth was confirmed was 1 or less)"}, {"measurement": "suppression of bacterial growth", "setting": "[1]; strain NM1", "result": "X (x indicates that the number of wells in which suppression of bacterial growth was confirmed was 1 or less)"}, {"measurement": "suppression of bacterial growth", "setting": "[1]; strain NM2", "result": "X (x indicates that the number of wells in which suppression of bacterial growth was confirmed was 1 or less)"}, {"measurement": "suppression of bacterial growth", "setting": "[1]; strain NM3", "result": "X (x indicates that the number of wells in which suppression of bacterial growth was confirmed was 1 or less)"}, {"measurement": "suppression of bacterial growth", "setting": "[1]; strain NM4", "result": "X (x indicates that the number of wells in which suppression of bacterial growth was confirmed was 1 or less)"}, {"measurement": "suppression of bacterial growth", "setting": "[1]; strain NM5", "result": "X (x indicates that the number of wells in which suppression of bacterial growth was confirmed was 1 or less)"}, {"measurement": "survival", "setting": "[2]", "result": "All mice of the meropenem administration group died"}, {"measurement": "degradation of meropenem on incubation with IMP-1", "setting": "[3]", "result": "completely degraded"}]}]}
